Data as given in the NIST ThermoML archive (doi:10.1016/j.tca.2008.11.005).

Settings: Liquid

CCO [ethanol]
Settings	vapor or sublimation pressure [kPa]
303.95 K	11.32
315.75 K	21.32
323.5 K	31.32
329.35 K	41.33
334.05 K	51.33
338.05 K	61.33
341.65 K	71.33
344.75 K	81.33
347.55 K	91.33
350.15 K	101.33

C[SiH]1O[SiH](C)O[SiH](C)O[SiH](C)O[SiH](C)O1 (stereo not given) [2,4,6,8,10-pentamethylcyclopentasiloxane]
Settings	vapor or sublimation pressure [kPa]
330.8 K	1.325
348.03 K	3.325
357.45 K	5.325
364.75 K	7.325
370.73 K	9.325
375.49 K	11.32
378.23 K	13.32
381.78 K	15.32
385.02 K	17.32
387.96 K	19.32
390.75 K	21.32
393.18 K	23.32
395.46 K	25.32
397.89 K	27.32
399.92 K	29.32
401.9 K	31.32
403.77 K	33.33
405.7 K	35.33
407.22 K	37.33
408.94 K	39.33
410.46 K	41.33
411.98 K	43.33
413.4 K	45.33
414.87 K	47.33
416.19 K	49.33
417.55 K	51.33
423.53 K	61.33
429.06 K	71.33
433.77 K	81.33
437.93 K	91.33
